The test system of one data set is U937 xenograft. The data set can be described thus: U937 xenografts in nude mice, i.p. administration. The data set is classed as in vivo, BALB/c-nu mice. The note with it: 15 mg/kg daily i.p. As for the experimental part: D) Body weights of mice throughout treatment. Data are expressed as mean value±SD. *P<0.05 compared to control group.
Female nude mice (BALB/c-nu, n=7) were inoculated with 3×10^7 U937 cells subcutaneously in the right flank. After 7 days of implant of U937 cells, mice were treated daily with Vehicle (control), or Tamibarotene (15 mg/Kg, positive control), or Formula III (K145) (15 mg/Kg) by i.p. administration. Tumor size was measured every other day.

In data set [1] the test system is Raf/MEK/ERK and PI3K/Akt signaling pathways. The data set can be described thus: Western blot analysis of ERK and Akt phosphorylation. The data set is classed as cell-based. As for the experimental part: Cells (5×10^5 per ml) were treated with various concentrations of test compound at 37° C. (5% CO2) for 3 hrs, then stimulated with TPA at a final concentration of 200 nM for 20 min. Samples from whole-cell pellets were prepared and 30 μg protein for each condition was subjected to SDS-PAGE, transferred onto a PVDF membrane, and blocked with 5% fat-free milk for 30 min. The membrane is probed with primary antibodies overnight at 4° C. followed by incubation with horseradish peroxidase-labeled anti-mouse IgG (1:5000, BD Bioscience). The immunoreactive bands are detected by chemilluminescence methods (Pierce) and visualized on Kodak Omat film. The following primary antibodies were used: phospho-p44/42 MAPK (ERK1/2, Thr202/Tyr204), p44/42 MAPK, phospho-p90RSK (Thr359/Ser363), RSK1/RSK2/RSK3 (Cell Signaling). Blots were reprobed with antibodies against α-tubulin to ensure equal loading and transfer of proteins.

In data set [2] the test system is U937 cells. The data set can be described thus: Uptake of K145 by U937 cells, ESI-MS/MS. The data set is classed as in vitro ADME, human. Conditions: 3 h, concentration dependent. As for the experimental part:
FIG. 16A-E. K145 accumulates and suppresses the S1P level. A and B) U937 cells were treated with K145 at the indicated concentrations for 3 h and the levels of K145 and S1P were measured by ESI-MS/MS. C) HEK293 cells were treated with K145 (10 μM) for 2 h. Lipids were extracted and different chain length species of ceramide were determined by LC-ESI-MS/MS. Numbers indicate chain length followed by the number of double bonds in the fatty acid. Data are averages of triplicate determinations and are expressed as pmol lipid/10^6 cells. D) U937 cells were treated with or without K145 (10 μM) for 3 h and levels of C1P species were determined by ESI-MS/MS. E) U937 cells were treated with FTY720 (1 μM) in the absence or presence of indicated K145 for 3 h, then FTY720-P was measured by ESI-MS/MS. *P<0.05 compared to control.
Next we examined whether K145 affects cellular levels of S1P. […] Therefore, we further characterized K145 in U937 cells. […] This might be due to the fact that many enzymes such as SphK1, SphK2, S1P lyase, and S1P phosphatise, not just SphK2, are involved in the regulation of cellular S1P. […] To further confirm its SphK2 selectivity, we then tested the effects of K145 on the phosphorylation of FTY720, a SphK2 specific substrate.

The target in the next data set is T1, SphK2 (Homo sapiens, UniProt Q9NRA0).
T1 sequence (Q9NRA0 1-654): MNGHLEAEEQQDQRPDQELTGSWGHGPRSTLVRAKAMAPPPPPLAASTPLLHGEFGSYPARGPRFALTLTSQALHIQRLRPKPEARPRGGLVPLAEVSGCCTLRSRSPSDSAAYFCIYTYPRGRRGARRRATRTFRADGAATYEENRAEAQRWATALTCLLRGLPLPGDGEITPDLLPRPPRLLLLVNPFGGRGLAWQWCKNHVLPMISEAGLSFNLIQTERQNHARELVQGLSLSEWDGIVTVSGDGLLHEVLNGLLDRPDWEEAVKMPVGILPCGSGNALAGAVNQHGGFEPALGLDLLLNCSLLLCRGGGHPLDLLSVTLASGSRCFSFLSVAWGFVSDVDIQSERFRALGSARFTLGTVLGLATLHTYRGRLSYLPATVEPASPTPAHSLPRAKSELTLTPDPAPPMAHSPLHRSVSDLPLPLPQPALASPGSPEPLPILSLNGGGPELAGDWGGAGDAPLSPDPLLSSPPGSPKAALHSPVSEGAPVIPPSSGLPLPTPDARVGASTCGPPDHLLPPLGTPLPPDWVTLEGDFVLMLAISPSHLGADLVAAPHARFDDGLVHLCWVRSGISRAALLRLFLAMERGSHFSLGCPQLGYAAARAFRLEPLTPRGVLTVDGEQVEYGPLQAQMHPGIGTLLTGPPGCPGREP
The data set can be described thus: Phosphorylation of FTY720 (SphK2 specific substrate) in U937 cells. The data set is classed as cell-based. Further details: U937 cells were treated with FTY720 (1 μM) in the absence or presence of indicated K145 for 3 h; endogenous in cells; host or cells: U937. The note with it: FTY720 1 μM, 3 h.

Data set [3] relates to U937 cells. The data set can be described thus: Cell apoptosis assay, annexin V/PI flow cytometry. Format: cell-based, human. As for the experimental part: Apoptosis was measured by flow cytometry using annexin V/propidium iodide (PI) as staining reagent. […] The cells were then incubated with annexin V-fluorescein isothiocyanate (FITC) (BD PharMingen, San Diego, Calif.) and 5 μg/mL propidium iodide (PI), and incubated for 15 minutes at room temperature in the dark per the manufacturer's instructions. The samples were analyzed by flow cytometry using a Becton Dickinson FACScan (Becton Dickinson, San Jose, Calif.) within 1 hr to determine the percentage of cells displaying annexin V staining (early apoptosis) or both annexin V and PI staining (late apoptosis).
In general terms: A flow cytometer gives signals particle by particle.

Data set [4] deals with human leukemia U937 cells. The data set can be described thus: Cell viability assay in human leukemia U937 cells. Format: cell-based. As for the experimental part: Cells were cultured at a density of 5×10^4 (U937) or 1×10^4 (PC-3, DU145, M12, HT29) cells per well in flat bottomed 96-well plates and treated with various concentrations of test compound at 37° C. (5% CO2). After 24 h, 20 μL of CellTiter 96® Aqueous One Solution Reagent (Promega, Madison, Wis.) was added to each well according to the manufacturer's instructions. After 1 hour, the cell viability was determined by measuring the absorbance at 490 nm using a micro-plate reader.

Consider `CCCCOc1ccc(CC/C=C2\SC(=O)N(CCN)C2=O)cc1` [K145, 3-(2-aminoethyl)-5-[3-(4-butoxyl-phenyl)-propylidene]-thiazolidine-2,4-dione], for which, in the data set on U937 xenograft (17 days), the “TGI (tumor growth inhibition)” value worked out at 44.2%. Further, the “body weights of mice” value in the data set with U937 xenograft (compared with vehicle) is “remained the same”. For the same compound, the “phosphorylation of both ERK and Akt” value in data set [1] (3 μM, 3 hrs treatment, then TPA stimulation) is listed as “significantly inhibited”. The “inhibition of Raf/MEK/ERK and PI3K/Akt signaling pathways” value in data set [1] (Western blot, FIGS. 9 and 10) is “inhibits”. For the same compound, the “uptake by U937 cells” value with U937 cells [2] is reported as “readily taken up”. In addition, the “phosphorylation of FTY720” value on SphK2 was “inhibited”. Besides, the “induction of apoptosis in U937 cells” value in the data set on U937 cells [3] (5 μM, after 18 hrs) was “significantly induced apoptosis”; in the data set on U937 cells [3] (10 μM, 4 hrs treatment) it was “significantly induced apoptosis”; with U937 cells [3] (varying concentrations and intervals), “significantly and dose-dependently induced apoptosis”. Also, the “IC50 for proliferation of tested cancer cells (in words)” value in data set [4] (FIG. 8, U937 cells, 24 h) is reported as “single digit micromolar”. In addition, the “inhibition of growth/proliferation of U937 cells (in words)” value in data set [4] (human leukemia U937 cells) is “dose-dependently inhibits the growth”.

The record behind these values is US9598384B2, “3-(2-amino-ethyl)-alkylidene)-thiazolidine-2,4-dione and 1-(2-amino-ethyl)-alkylidene-1,3-dihydro-indol-2-one derivatives as selective sphingosine kinase 2 inhibitors” (VIRGINIA COMMONWEALTH UNIVERSITY, priority 2012, dated 2017).
